Read-outs that look alike come from different tables or passages of the source.
How the values were obtained:
[1] = molecular target: CUL4A-DDB1-BPB interaction (Homo sapiens (Human), UniProt Q16531); assay: AlphaLISA in vitro binding assay, CUL4A and DDB1-BPB binding; conditions: inhibition of CUL4A and DDB1-BPB binding
How it was run: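 Compound disruption of CUL4A binding to DDB1-BPB measured by AlphaLISA/AlphaScreen bead proximity in 384-well format. IC50 from nonlinear log(inhibitor)-vs-response curve fit.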

[2] = system: CUL4A^high MDA-MB-468 breast cancer cells; assay: Cell killing in CUL4-high MDA-MB-468 cells (CellTiter Glo); assay type: cell-based; conditions: Homo sapiens, 8 days treatment
How it was run: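 Cells seeded, treated after 24 h with DMSO or compound (0 to 20 μM). Medium and compound replaced every 48 h over 8 days. Viability measured by CellTiter-Glo luminescence; EC50 (50% killing) from log(inhibitor) vs response nonlinear fit.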

[3] = system: CUL4A^low T47D breast cancer cells; assay: Cell killing in CUL4-low T47D cells (CellTiter Glo); assay type: cell-based; conditions: Homo sapiens, 192 h, 8 days treatment
[4] = system: CUL4A-Vpr-dependent UNG2 degradation in Hela DOX-inducible-Vpr cells; assay: DOX-induced Vpr-mediated CUL4-dependent UNG2 degradation (Western blot); assay type: cell-based; conditions: FIG. 6C
Procedure: FIG. 6C. Inhibition of DOX-induced Vpr-mediated CUL4-dependent UNG2 degradation by small molecule CUL4 inhibitors. In brief, Hela DOX-inducible-Vpr cells were seeded in 6-well plates. After 24 hours incubation, medium was changed to growth medium with 75 ng/ml doxycycline (DOX) overnight. On the third day, DMSO or indicated concentrations of compounds in serum-free medium containing DOX were added. The cells were lysed in buffer containing 150 mM NaCl, 1% SDS, 10 mM Tris-HCl (pH 6.8), 1× complete protease inhibitor cocktail and 10 U Benzo nuclease. Equal amounts of proteins were resolved on 9% SDS-PAGE gel and UNG2 levels were detected using anti-UNG2 (2C12) antibody (Origene #TA503563). α-tubulin (Proteintech, #66031-1-Ig) was used as an internal control. Normalized UNG2/α-tubulin ratio is higher in the compound treated sample than DMSO treated sample. (−) means that no change happens between compound treated sample with control sample.

[5] = 192 h, MDA-MB-468 cells, read-out: EC50 CUL4-High Cells (cell killing)
[6] = T47D cells, read-out: EC50 CUL4-Low Cells (cell killing)

CUL4A-DDB1-BPB interaction, sequence (Q16531 403-706): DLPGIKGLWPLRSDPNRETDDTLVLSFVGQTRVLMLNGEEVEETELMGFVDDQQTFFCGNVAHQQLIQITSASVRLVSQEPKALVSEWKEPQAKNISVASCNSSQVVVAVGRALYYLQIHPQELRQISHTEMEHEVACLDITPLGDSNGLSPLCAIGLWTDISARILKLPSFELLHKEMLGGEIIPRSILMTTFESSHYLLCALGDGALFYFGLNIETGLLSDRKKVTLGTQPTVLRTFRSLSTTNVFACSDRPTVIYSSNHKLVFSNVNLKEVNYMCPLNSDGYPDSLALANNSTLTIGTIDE

Row | SMILES | IC50 [1] [µM] | EC50 [2, 5] [µM] | EC50 [3, 6] [µM] | Inhibition of CUL4A-Vpr-dependent UNG2 degradation [4] | EC50 ([2]; MDA-MB-468, 192 h, Table 3, 0 to 20 μM compound, read-out: EC50 OF cell killing, MDA-MB-468) [µM] | EC50 ([3]; T47D, Table 3, 0 to 20 μM compound, read-out: EC50 OF cell killing, T47D) [µM]
1 | CN(c1ccc(-c2nc(C(=O)O)cc3c2[nH]c2ccc(F)cc23)cc1)S(=O)(=O)c1ccccc1 [PA93] | 0.21 ± 0.1 | 11.1 | > 100 | robust inhibition | – | –
2 | CN(c1ccc(-c2nc(C(=O)O)cc3c2[nH]c2cccc(F)c23)cc1)S(=O)(=O)c1ccccc1 [PA99, 5-fluoro-1-(4-(N-methylphenylsulfonamido)phenyl)-9H-pyrido[3,4-b]indole-3-carboxylic acid] | 0.38 | 1.18 | 8.27 | robust inhibition | 1.18 | 8.27

Source: patent US20250188078A1, “SMALL MOLECULE INHIBITORS OF THE CRL4 UBIQUITIN LIGASE” (Cornell University, priority 2022, published 2025)
